Here are results for two compounds from patent US6572751B1, “Method and apparatus for continuous flow isoelectric focusing for purifying biological substances” (priority 1997, dated 2003).

One may read the inhibition as the change of the read-out against control, counted positive when it falls. A higher inhibition goes with a strong effect.

Test [1] concerns E. coli and two Streptococcus Spp. Particulars: disk tests.
Test [2] is described as follows: Lysozyme activity of fractions. The format is biochemical.
Method: For this Exarnple, egg white was collected from 2,000 eggs (about 50 L) and diluted in ice-cold distilled water, up to 150 L. All manipulations were done at 4° C. The solution was filtered and introduced into a 4 L apparatus according to the present invention, and having three working outflow ports (plus two electrode outflows). The contifocuser was initially filled with distilled water. The flow rate was adjusted at 75 ml/min, a DC 1,000 Volts was established, and the initial power of the system was 1.5 W. After adding the crude egg white suspension, the power raised to 10.5 W. The contifocusing lasted 34 hrs. […] This suspension was gradually introduced into a 1 L contifocuser with three working and two electrode outflow ports. The flow rate with distilled water was adjusted at 10 ml/min, 1,000 V/DC. […] The contifocusing lasted 3 days. The outflow nearest to the cathode, at pH 10.5, was collected. […] This fraction of 12 L was thereafter introduced in four fractions onto 200×1500 mm chromatographic columns packed by a molecular sieving gel, Spheron P-200, and 25 ml fractions were collected.

For the compound `CN(C)[C@@H]1C(=O)C(C(N)=O)=C(O)[C@@]2(O)C(=O)C3=C(O)c4c(O)cccc4[C@@](C)(O)[C@H]3C[C@@H]12` [original material, Tetracyclin], the inhibition in test [1] is 85%.
With “lysozyme: enzyme isolated from egg white by contifocusing”, the protein-splitting activity in test [2] (first peak after Spheron P-200 gel chromatography) is reported as 20,000 U/g. For the same compound, the “lysozyme concentration (activity)” value in test [2] (outflow at pH 10.5 after first contifocusing run) is 200 U/ml.
